Assay results reported in patent US20260001849A1, “NOVEL B0AT1 INHIBITOR” (MITSUBISHI TANABE PHARMA CORPORATION, priority 2023, published 2026).

These molecules were tested against T1, Human BOAT1 (Homo sapiens, UniProt Q695T7) (assay: hBOAT1 inhibitory test (phenylalanine uptake)). Conditions: Human BOAT1 stable expression CHO cells; [3H]-L-phenylalanine uptake, phenylalanine 0.25 mM; radioactivity after 100 to 200 min; read-out: hB0AT1 IC50.
T1 construct: expressed in transfected cells
T1 sequence (Q695T7 1-634): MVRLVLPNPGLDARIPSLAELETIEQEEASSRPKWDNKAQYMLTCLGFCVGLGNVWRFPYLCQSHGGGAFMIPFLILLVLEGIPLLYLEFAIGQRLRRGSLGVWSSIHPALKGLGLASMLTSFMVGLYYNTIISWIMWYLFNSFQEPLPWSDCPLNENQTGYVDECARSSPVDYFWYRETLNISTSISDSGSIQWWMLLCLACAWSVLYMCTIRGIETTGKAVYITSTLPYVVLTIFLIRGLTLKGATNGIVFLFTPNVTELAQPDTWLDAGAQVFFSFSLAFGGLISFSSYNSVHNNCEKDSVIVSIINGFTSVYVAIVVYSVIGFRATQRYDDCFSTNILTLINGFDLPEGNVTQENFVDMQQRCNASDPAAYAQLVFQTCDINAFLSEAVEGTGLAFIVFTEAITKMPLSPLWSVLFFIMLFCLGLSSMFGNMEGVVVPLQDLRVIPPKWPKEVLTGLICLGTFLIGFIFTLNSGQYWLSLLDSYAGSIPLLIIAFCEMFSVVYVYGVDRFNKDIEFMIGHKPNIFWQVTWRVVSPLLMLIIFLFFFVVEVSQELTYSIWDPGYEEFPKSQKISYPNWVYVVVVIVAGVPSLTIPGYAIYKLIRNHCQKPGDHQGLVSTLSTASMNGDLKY
Format: cell-based
Protocol: A test compound dissolved in dimethyl sulfoxide (DMSO) was added to a 96 well plate for solid phase radioactivity measurement containing a scintillator at the bottom of the well (final concentration of DMSO 0.5%). DMSO alone as a control and DMSO containing N-(4-bromophenyl)-3,5-dichloro-2-hydroxybenzamide (final concentration […]) for the measurement of BOAT1 non-specific uptake were similarly added at 0.5 μL per well. Human BOAT1 stable expression CHO cells suspended in a buffer (buffer containing 96 mM sodium chloride, 2 mM potassium chloride, 1.8 mM calcium chloride, 1 mM magnesium chloride, 0.01% bovine serum albumin, and 10 mM 2-[4-(2-hydroxyethyl)-1-piperazinyl]ethanesulfonic acid) were added by 90 μL to 75000 cells/well. After standing at ordinary temperature for 30 min or longer, the cells were subjected to a phenylalanine uptake experiment. A buffer containing L-phenylalanine and [3,4,5-3H]-L-phenylalanine was added by 10 μL per well (final concentration of phenylalanine 0.25 mM), and the radioactivity of the plate bottom surface at ordinary temperature was measured with a scintillation counter over time, and the radioactivity value after 100 to 200 min was analyzed.

IC50 | Structure (SMILES)
0.436 µM | O=C(O)Cc1ccc2c(c1)CCN(C(=O)CNC(=O)/C=C/c1ccc(C(F)(F)F)cc1)CC2 [I-140, 2-[3-[2-[[(E)-3-[4-(trifluoromethyl)phenyl]prop-2-enoyl]amino]acetyl]-1,2,4,5-tetrahydro-3-benzazepin-7-yl]acetic acid]
0.077 µM | CNC(=O)Cc1nc2c(s1)CCN(C(=O)CNC(=O)/C=C/c1ccc(C(F)(F)F)cc1F)C2 [I-376]
0.447 µM | O=C(O)Cc1ccc2c(c1)CN(C(=O)CNC(=O)/C=C/c1ccc(C(F)(F)F)cc1)CC2 [I-168]
0.096 µM | O=C(/C=C/c1ccc(C(F)(F)F)cc1F)NCC(=O)N1CCN(C[C@H]2C[C@@H](C(=O)O)C2)CC1c1ccc(Cl)cc1 (mixture of isomers) [I-249, 3-[[3-(4-chlorophenyl)-4-[2-[[(E)-3-[2-fluoro-4-(trifluoromethyl)phenyl]prop-2-enoyl]amino]acetyl]piperazin-1-yl]methyl]cyclobutane-1-carboxylic acid]
0.171 µM | COc1cc(CC(=O)O)cc2c1CN(C(=O)CNC(=O)/C=C/c1ccc(C(F)(F)F)cc1)CC2 [I-177]
0.156 µM | O=C(/C=C/c1ccc(C(F)(F)F)cc1)NCC(=O)N1CCc2cc(N3CCC(C(=O)O)C3)ccc2C1 (centres unmarked) [I-160]
0.462 µM | O=C(O)CCCCc1ccc2c(c1)CCN(C(=O)CNC(=O)/C=C/c1ccc(C(F)(F)F)cc1)C2 [I-228]
0.496 µM | COCC1c2ccc(CC(=O)O)cc2CCN1C(=O)CNC(=O)/C=C/c1ccc(C(F)(F)F)cc1 (centres unmarked) [I-212]
0.192 µM | O=C(O)CCc1nc2c(s1)CN(C(=O)CNC(=O)/C=C/c1ccc(C(F)(F)F)cc1)CC2 [I-200, 3-[5-[2-[[(E)-3-[4-(trifluoromethyl)phenyl]prop-2-enoyl]amino]acetyl]-6,7-dihydro-4H-[1,3]thiazolo[5,4-c]pyridin-2-yl]propanoic acid]
0.048 µM | CNC(=O)Cc1ccc2c(n1)CCN(C(=O)CNC(=O)/C=C/c1ccc(C(F)(F)F)cc1)C2 [I-377]
0.107 µM | N#Cc1cc2c(cc1CC(=O)O)CCN(C(=O)CNC(=O)/C=C/c1ccc(I)cc1)C2 [I-222]
0.332 µM | CC(C)(C)OC(=O)C1CCN(c2ccc3c(c2)CCN(C(=O)CNC(=O)/C=C/c2ccc(C(F)(F)F)cc2)C3)C1 (centres unmarked) [I-26]
0.872 µM | O=C(O)Cc1cnn2c1CN(C(=O)CNC(=O)/C=C/c1ccc(C(F)(F)F)cc1)CC2 [I-179]
3.38 µM | C[C@@H]1CN(CCCC(=O)O)C[C@H](c2ccccc2)N1C(=O)CNC(=O)/C=C/c1ccc(C(F)(F)F)cc1F [I-371]
0.042 µM | COC(=O)Cc1cc(F)c2c(c1)CCN(C(=O)CNC(=O)/C=C/c1ccc(C(F)(F)F)cc1F)C2 [I-118]
0.123 µM | COC(=O)CCc1cc2c(s1)CN(C(=O)CNC(=O)/C=C/c1ccc(C(F)(F)F)cc1)CC2 [I-13]
0.096 µM | N#Cc1c(CC(=O)O)ccc2c1CCN(C(=O)CNC(=O)/C=C/c1ccc(S(F)(F)(F)(F)F)cc1)C2 [I-152]
0.152 µM | O=C(/C=C/c1ccc(C(F)(F)F)cc1)NCC(=O)N1CCCC(C23CCC(C2)C3C(=O)O)C1 (centres unmarked) [I-229]
0.063 µM | C[C@@H]1CN(C(=O)CNC(=O)/C=C/c2ccc(C(F)(F)F)cc2F)[C@@H](c2ccc(C3CC3)cc2)CN1CCC(=O)O [I-382, 3-[(2R,5S)-5-(4-cyclopropylphenyl)-4-[2-[[(E)-3-[2-fluoro-4-(trifluoromethyl)phenyl]prop-2-enoyl]amino]acetyl]-2-methylpiperazin-1-yl]propanoic acid]
0.054 µM | CNC(=O)Cc1cnn2c1CN(C(=O)CNC(=O)/C=C/c1ccc(C(F)(F)F)cc1)CC2 [I-374]
0.459 µM | O=C(O)CCc1cnn2c1CN(C(=O)CNC(=O)/C=C/c1ccc(C(F)(F)F)cc1)CC2 [I-193]
0.05 µM | COC(=O)CCCN1CCN(C(=O)CNC(=O)/C=C/c2ccc(C(F)(F)F)cc2)C(c2ccccc2)C1 (centres unmarked) [I-4]
0.089 µM | COC(=O)Cn1nc(C)c2c1CCN(C(=O)CNC(=O)/C=C/c1ccc(C(F)(F)F)cc1)C2 [I-12]
0.106 µM | O=C(O)Cc1cc2c(cn1)CN(C(=O)CNC(=O)/C=C/c1ccc(C(F)(F)F)cc1)CC2 [I-167]

Same assay, conditions: Human BOAT1 stable expression CHO cells; phenylalanine uptake, phenylalanine 0.25 mM; read-out: hB0AT1 IC50

IC50 | Structure (SMILES)
0.879 µM | O=C(O)C[C@H]1CCN(C2CCCN(C(=O)CNC(=O)/C=C/c3ccc(C(F)(F)F)cc3F)C2)C1 (some centres unmarked) [I-361]
0.125 µM | O=C(O)CCCN1CCN(C(=O)CNC(=O)/C=C/c2ccc(C(F)(F)F)cc2F)C(c2cccc(C(F)(F)F)c2)C1 (centres unmarked) [I-262]
1.72 µM | O=C(O)CCCN1CCN(C(=O)CNC(=O)/C=C/c2ccc(C(F)(F)F)cc2F)C(c2cccnc2)C1 (centres unmarked) [I-403]
1.04 µM | C[C@@H]1CN(C(=O)CNC(=O)/C=C/c2ccc(C(F)(F)F)cc2F)[C@@H](c2ccccc2)CN1CC(C)(C)C(=O)O [I-346]
3.26 µM | C[C@H]1[C@H](c2ccccc2)N(C(=O)CNC(=O)/C=C/c2ccc(C(F)(F)F)cc2F)CCN1CCCC(=O)O [I-352]
0.017 µM | NC(=O)Cc1cc(F)c2c(c1)CCN(C(=O)CNC(=O)/C=C/c1ccc(C(F)(F)F)cc1)C2 [I-276]
0.048 µM | O=C(O)CCCN1CCN(C(=O)CNC(=O)/C=C/c2ccc(C(F)(F)F)cc2F)C(c2cccc(C3CC3)c2)C1 (centres unmarked) [I-256]
0.747 µM | O=C(/C=C/c1ccc(C(F)(F)F)cc1F)NCC(=O)N1CCN(CC2CC(C(=O)O)C2)CC1c1ccc(Cl)cc1 (single isomer, unassigned) [I-296, 3-[[3-(4-chlorophenyl)-4-[2-[[(E)-3-[2-fluoro-4-(trifluoromethyl)phenyl]prop-2-enoyl]amino]acetyl]piperazin-1-yl]methyl]cyclobutane-1-carboxylic acid]
0.078 µM | CN(C)C(=O)CCc1cnn2c1CN(C(=O)CNC(=O)/C=C/c1ccc(C(F)(F)F)cc1)CC2 [I-275]
0.097 µM | CC(C)(CCN1CCN(C(=O)CNC(=O)/C=C/c2ccc(C(F)(F)F)cc2F)C(c2ccc(Cl)cc2)C1)C(=O)O (centres unmarked) [I-254]
0.025 µM | CNC(=O)Cc1nc2c(s1)CN(C(=O)CNC(=O)/C=C/c1ccc(C(F)(F)F)cc1F)CC2 [I-284]
0.256 µM | CNC(=O)Cn1ncc2c1CN(C(=O)CNC(=O)/C=C/c1ccc(C(F)(F)F)cc1)CC2 [I-283]
0.034 µM | O=C(/C=C/c1ccc(C(F)(F)F)cc1)NCC(=O)N1CCn2ncc(CCC(=O)N3CCCC3)c2C1 [I-274]
0.266 µM | O=C(O)CCCN1CCN(C(=O)CNC(=O)/C=C/c2ccc(C(F)(F)F)cc2F)C(c2ccc(Cl)cc2)C1 (single isomer, unassigned) [I-294, 4-[3-(4-chlorophenyl)-4-[2-[[(E)-3-[2-fluoro-4-(trifluoromethyl)phenyl]prop-2-enoyl]amino]acetyl]piperazin-1-yl]butanoic acid]
0.039 µM | O=C(O)CCCN1CCN(C(=O)CNC(=O)/C=C/c2ccc(C(F)(F)F)cc2F)C(c2cccc(Br)c2)C1 (single isomer, unassigned) [I-293, 4-[3-(3-bromophenyl)-4-[2-[[(E)-3-[2-fluoro-4-(trifluoromethyl)phenyl]prop-2-enoyl]amino]acetyl]piperazin-1-yl]butanoic acid]
1.2 µM | O=C(O)CCCN1CCN(C(=O)CNC(=O)/C=C/c2ccc(C(F)(F)F)cc2F)C(c2cccc(Br)c2)C1 (single isomer, unassigned) [I-292, 4-[3-(3-bromophenyl)-4-[2-[[(E)-3-[2-fluoro-4-(trifluoromethyl)phenyl]prop-2-enoyl]amino]acetyl]piperazin-1-yl]butanoic acid]
1.4 µM | O=C(O)C[C@@H]1CCN(C2CCCN(C(=O)CNC(=O)/C=C/c3ccc(C(F)(F)F)cc3F)C2)C1 (some centres unmarked) [I-362]
